Laboratory results: patent publication US10869931B2, “Polyethylene glycol-modified angiogenesis inhibitor HM-1 and application thereof” (NANJING ANJI BIOLOGICAL TECHNOLOGY CO.,LTD, priority 2016, dated 2020)
Marks after values point to notes of the source that are not given here. Where no end group is shown, it is not given here.

What was measured:
[1] = test system: Esophageal cancer tumor cells; test: MTT proliferation inhibition, esophageal cancer cells; format: cell-based, human; design: concentration or dose not given beside the values; conditions: 48 h
Method: (§1) The activity of mPEG-HM-1 to inhibit the growth of various tumor cells was examined by MTT assay. The tumor cells were cultured to a concentration of 90% or more in a 37° C., 5% CO2 incubator and collected by trypsinization. The cells were resuspended in the culture medium and counted under a microscope to adjust the cell concentration to 2×10^4 cells/mL, the cell suspension was inoculated into a 96-well plate at 100 μL/well and incubated overnight at 37° C. in a 5% CO2 incubator. mPEG-HM-1 was diluted with the culture solution to each predetermined concentration. Docetaxel is diluted to the final concentration with the culture medium. After the cells were fully attached, each dilution was added to a 96-well plate (100 μL/well). The mPEG-HM-1 dilution was added as a drug-administered group, and docetaxel was added as a positive control group, and a culture solution without any drug was used as a negative control group. Incubate for 48 h at 37° C. in a 5% CO2 incubator. 5 mg/mL of MTT was added to a 96-well plate at 20 μL per well, and incubation was continued for 4 hours. The medium was aspirated, dissolved in 150 μL of DMSO per well, and gently mixed by shaking for 10 min. The absorbance was measured at a measurement wavelength of 570 nm and a reference wavelength of 630 nm using a microplate reader, and the rate of growth inhibition (proliferation inhibition, PI) was calculated. The formula is as follows: PI (%)=1−administration group/negative group
(§2) The test was repeated 3 times independently, and the results obtained by the test were expressed as mean±SD, and the test results are shown in Table 15 to Table 18.

[2] = test system: Colorectal cancer tumor cells; test: MTT proliferation inhibition, colorectal cancer cells; format: cell-based, human; design: concentration or dose not given beside the values; conditions: 48 h
Method: as §1, §2

[3] = test system: collagen induced arthritis (CIA) in DBA/1 mice; test: Collagen-induced mouse arthritis (CIA) model; format: in vivo; conditions: for Joint swelling / Left and right paw swelling / Clinical score: CIA DBA/1 mice; for Clinical score: maximum score 16
[4] = test system: carrageenan-induced toe swelling in SD rats; test: Carrageenan-induced acute toe swelling in rats; format: in vivo, rat; design: Swelling: unit not given here
Method: SD rats were divided into blank model group, dexamethasone-positive group (5 mg/kg) and mPEG-HM-1 test group. The drug was administered once a day, and the model group was given the same volume of normal saline for 3 days and fed normally. At the first hour after the last administration, 0.1 mL of 1% carrageenan was injected subcutaneously into the right hind paw of the rats to induce inflammation. The volume of the foot was measured at 1 h, 3 h, 5 h, and 7 h after inflammation. The degree of swelling of the foot was calculated according to the following formula: the degree of swelling of the foot (mL)=the volume of the foot after inflammation−the volume before inflammation. Record the number of milliliters of spilled liquid (method: use the ballpoint pen to circle as the measurement mark at the protruding point of the right joint, and then put the right hind foot of each mouse into the volume measuring device, so that the hind limb is exposed outside the cylinder, and the depth of the immersion was determined by coinciding the circle with the liquid surface. After the foot enters the liquid, the liquid level rises, and the volume of the overflow liquid is the volume of the right hind foot of the rat, and the normal volume of the right hind foot of each mouse is sequentially determined).

[5] = test system: choroidal neovascularization in BN rats; test: Laser-induced choroidal neovascularization in BN rats (FFA); format: in vivo, rat
Method: 6-8 weeks old male BN rats were anesthetized with 846 compound anesthetic 0.5 mL/kg administered intraperitoneally. The eye drops of compound tropamide eyes were used 5 minutes before laser photocoagulation, and the pupils of both eyes were fully scattered. Fix animals, with the aid of −53.00 D contact lens, around the optic disc and along the same distance from the optic disc 2PD, the laser beam photocoagulation were performed to make a total of 8 photo-condensation spots, with laser wavelength of 647.1 nm, power of 350 mW, photocoagulation spot diameter and time were 50 μm and 0.05 s, respectively. Immediately after photocoagulation, fundus photography was performed. FFA, histopathology and transmission electron microscopy were performed at 3, 7, 14, 21, and 28 days after photocoagulation.
It was confirmed by fundus photography and FFA examination that the fluorescein leakage of photocoagulation peaked on the 21st day after photocoagulation, and histopathological examination was performed at the same time. […] A large number of neovascular vessels were seen, and red blood cells were visible in the lumen. Microscopically, capillary cells in the choroidal melanocytes were cohesively altered and endothelial cells aggregated.
Rats that were successfully modeled were randomly divided into groups of 5 rats each. They were labeled as negative control group, mPEG-SC-HM-1 treatment group, mPEG2-NHS-HM-1 treatment group, mPEG-ALD-HM-1 treatment group and mPEG-bALD-HM-1 treatment group, respectively. Saline, mPEG-HM-1 (see Table 53 for dosing) was administered intravitreally, once daily for 1 week. FFA examinations were performed 3 days, 7 days, 14 days, and 28 days after administration of the modified peptides.

[6] = test system: retinal neovascular clusters in OIR C57/B16 mice; test: Retinal blood vessels in OIR mice; format: in vivo, mouse; conditions: for Neovascular clusters area: retina evaluated on day 17; for Inhibition rate: neovascular clusters area vs control, day 17
From the text: Establishment of the OIR model: Exposure of young mouse and their mothers to 75% hyperoxic environment from day 7 to day 12 after birth of C57/B16 mice caused rapid disappearance of capillaries in the central retina. Upon returning to the indoor air on the 12th day, the retinal blood vessels, upon exposing to hyperoxia, rapidly disappeared, causing extensive abnormal neovascularization, and the central portion of the retina remained largely avascular for a long time. After the blood vessels disappeared completely, on the 13th day, physiological saline (negative control group), mPEG-SC-HM-1, mPEG2-NHS-HM-1, mPEG-ALD10k-HM-1, and mPEG-bALD-HM-1, were administered by intravitreal injection and retinal vessels were evaluated on day 17 (to label unclosed vessels, […] of Texas Red-labeled tomato lectin was injected into the left ventricle and circulated for 5 min).

[7] = 40 mg/kg subcutaneous from day 30 of modeling
[8] = 40 mg/kg once a day for 3 days, 1 h after carrageenan
[9] = 40 mg/kg once a day for 3 days, 3 h after carrageenan
[10] = 40 mg/kg once a day for 3 days, 5 h after carrageenan
[11] = 40 mg/kg once a day for 3 days, 7 h after carrageenan
[12] = 80 mg/kg once a day for 3 days, 1 h after carrageenan
[13] = 80 mg/kg once a day for 3 days, 3 h after carrageenan
[14] = 80 mg/kg once a day for 3 days, 5 h after carrageenan
[15] = 80 mg/kg once a day for 3 days, 7 h after carrageenan
[16] = Day 3 after administration, 100 μg intravitreally once daily for 1 week (Table 53)
[17] = Day 3 after administration, 100 μg intravitreally once daily for 1 week (Table 53), total spots 290-296 by table
[18] = Day 7, 100 μg intravitreally once daily for 1 week (Table 53)
[19] = Day 7, 100 μg intravitreally once daily for 1 week (Table 53), total spots 182-188 by table
[20] = Day 14, 100 μg intravitreally once daily for 1 week (Table 53)
[21] = Day 14, 100 μg intravitreally once daily for 1 week (Table 53), total spots 132-138 by table
[22] = Day 28, 100 μg intravitreally once daily for 1 week (Table 53)
[23] = Day 28, 100 μg intravitreally once daily for 1 week (Table 53), total spots 67-71 by table
[24] = 100 μg intravitreal injection on day 13
[25] = 80 mg/kg subcutaneous from day 30 of modeling

Substance	rate of growth inhibition [1]	rate of growth inhibition [2]	Joint swelling [3, 7]	Left and right paw swelling [3, 7]	Clinical score [3, 7]	Swelling [4, 8]	Swelling [4, 9]	Swelling [4, 10]	Swelling [4, 11]	Swelling [4, 12]	Swelling [4, 13]	Swelling [4, 14]	Swelling [4, 15]	CNV Incidence rate [5, 16]	leakage Spots # [5, 17]	CNV Incidence rate [5, 18]	leakage Spots # [5, 19]	CNV Incidence rate [5, 20]	leakage Spots # [5, 21]	CNV Incidence rate [5, 22]	also measured
mPEG2-NHS20k-Arg-Gly-Ala-Asp-Arg-Ala-Gly-Gly-Gly-Gly-Arg-Gly-Asp ({mPEG2‑NHS 20 kDa}-RGADRAGGGGRGD) [mPEG2-NHS20k-HM-1]	50.79 ± 14.37%	58.16 ± 20.36%	0.72 ± 0.16 mm	0.75 ± 0.12 mm	8.67 ± 1.35	0.26 ± 0.15	0.34 ± 0.14	0.43 ± 0.17	0.36 ± 0.12	0.25 ± 0.11	0.32 ± 0.13	0.41 ± 0.11	0.34 ± 0.14	52.72%	155	52.20%	95	45.99%	63	42.65%	limbs score (in words) ([3]; CIA mice, subcutaneous, once every three days, vs model control group): significantly lower than that of the model control group; leakage Spots # [5, 23]: 29; Neovascular clusters area [6, 24]: 0.112 ± 0.011 mm^2; Inhibition rate ([6]; 100 μg intravitreal): 49.27%**
mPEG2-NHS40k-Arg-Gly-Ala-Asp-Arg-Ala-Gly-Gly-Gly-Gly-Arg-Gly-Asp ({mPEG2‑NHS 40 kDa}-RGADRAGGGGRGD) [mPEG2-NHS40k-HM-1]	48.65 ± 12.64%	54.40 ± 18.29%	–	–	–	–	–	–	–	0.26 ± 0.12	0.32 ± 0.11	0.42 ± 0.14	0.35 ± 0.17	–	–	–	–	–	–	–	Joint swelling [3, 25]: 0.76 ± 0.14 mm; Left and right paw swelling [3, 25]: 0.79 ± 0.15 mm; Clinical score [3, 25]: 8.98 ± 1.30; Swelling ([4]; 160 mg/kg once a day for 3 days, 1 h after carrageenan): 0.27 ± 0.10; Swelling ([4]; 160 mg/kg once a day for 3 days, 3 h after carrageenan): 0.35 ± 0.18; Swelling ([4]; 160 mg/kg once a day for 3 days, 5 h after carrageenan): 0.41 ± 0.13; Swelling ([4]; 160 mg/kg once a day for 3 days, 7 h after carrageenan): 0.34 ± 0.19; CNV Incidence rate ([5]; Day 3 after administration, 200 μg intravitreally once daily for 1 week (Table 53)): 51.02%; leakage Spots # ([5]; Day 3 after administration, 200 μg intravitreally once daily for 1 week (Table 53), total spots 290-296 by table): 150; CNV Incidence rate ([5]; Day 7, 200 μg intravitreally once daily for 1 week (Table 53)): 51.10%; leakage Spots # ([5]; Day 7, 200 μg intravitreally once daily for 1 week (Table 53), total spots 182-188 by table): 93; CNV Incidence rate ([5]; Day 14, 200 μg intravitreally once daily for 1 week (Table 53)): 44.53%; leakage Spots # ([5]; Day 14, 200 μg intravitreally once daily for 1 week (Table 53), total spots 132-138 by table): 61; CNV Incidence rate ([5]; Day 28, 200 μg intravitreally once daily for 1 week (Table 53)): 41.18%; leakage Spots # ([5]; Day 28, 200 μg intravitreally once daily for 1 week (Table 53), total spots 67-71 by table): 28; Neovascular clusters area ([6]; 200 μg intravitreal injection on day 13): 0.120 ± 0.008 mm^2; Inhibition rate ([6]; 200 μg intravitreal): 45.92%*
mPEG-ALD20k-Arg-Gly-Ala-Asp-Arg-Ala-Gly-Gly-Gly-Gly-Arg-Gly-Asp ({mPEG‑ALD 20 kDa}-RGADRAGGGGRGD) [mPEG-ALD20k-HM-1]	60.18 ± 15.32%	72.43 ± 19.32%	0.72 ± 0.16 mm	0.74 ± 0.13 mm	8.66 ± 1.38	0.27 ± 0.13	0.34 ± 0.16	0.41 ± 0.14	0.35 ± 0.13	0.25 ± 0.09	0.32 ± 0.11	0.40 ± 0.15	0.32 ± 0.16	51.72%	150	48.90%	89	45.45%	60	40.85%	leakage Spots # [5, 23]: 29; Neovascular clusters area [6, 24]: 0.095 ± 0.009 mm^2; Inhibition rate ([6]; 100 μg intravitreal): 57.03%**
